Assay results as given in article PMC3433420 (PLoS ONE, 2012).
Like-named read-outs stand apart in the source and are kept apart here. Residues, ends and D or L forms follow the SMILES beside them.

Assays:
GRB7 SH2 domain = GRB7 SH2 domain (Homo sapiens, UniProt Q14451); assay: FP saturation binding assay
PLCG1-C SH2 domain = molecular target: T1, PLCG1-C SH2 domain (Homo sapiens, UniProt P19174); assay: biochemical; assay type: binding; conditions: protein PLCG1-C; high-confidence ErbB interactions; mean of replicate hits
T1 construct: The 6X His-tagged SH2 domain proteins used in the assay, PLCG1-C, SHC4, VAV2; thioredoxin; made in house; host or cells: E. coli BL21(DE3)pLysS
T1 sequence (P19174 668-756 limits assumed): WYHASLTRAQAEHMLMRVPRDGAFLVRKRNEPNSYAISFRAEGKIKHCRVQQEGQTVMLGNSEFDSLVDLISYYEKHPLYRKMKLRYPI

[1] = molecular target: PIK3R2-NC tandem SH2 domains (Homo sapiens, UniProt O00459); assay: FP saturation binding assay
Sequence of PIK3R2-NC tandem SH2 domains (O00459 330-716 limits assumed): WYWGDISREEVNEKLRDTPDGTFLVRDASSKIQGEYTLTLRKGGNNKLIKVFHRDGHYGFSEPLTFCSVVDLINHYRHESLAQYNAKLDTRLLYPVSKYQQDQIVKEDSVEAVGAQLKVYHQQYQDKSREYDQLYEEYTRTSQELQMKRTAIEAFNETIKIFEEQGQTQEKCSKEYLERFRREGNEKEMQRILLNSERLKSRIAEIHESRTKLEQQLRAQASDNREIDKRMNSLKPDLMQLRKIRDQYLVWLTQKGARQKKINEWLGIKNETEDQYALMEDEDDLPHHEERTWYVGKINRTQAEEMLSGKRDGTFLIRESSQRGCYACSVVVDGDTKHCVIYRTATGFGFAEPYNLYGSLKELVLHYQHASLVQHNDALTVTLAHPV

SH2 and PTB domains = conditions: ref Kaushansky et al. Mol Biosys 2008, cited from earlier work
Excerpt: Supplement pone.0044471.s022.xlsx, sheet "Most recent PM interactions" | column: Kd || Supplement pone.0044471.s022.xlsx, sheet "All original PM interactions" | column: Kd

[2] = test system: 93 human SH2 domains and 2 phosphotyrosine binding (PTB) domains; assay: FP saturation binding assay, whole domain panel (protein named per line or not at all)
Procedure: (See Figure 1A) Rhodamine-labeled peptides were dissolved in assay buffer (20 mM HEPES, 100 mM KCl, 0.1% Tween-20, 5 mM DTT, pH 7.8), diluted to a concentration of 20 nM, and plated into black 384-well plates (Corning, Corning, NY) at 5 µL/well using a Perkin Elmer EP3 pipetting workstation (V&P Scientific, Inc., San Diego, CA). SH2, PTB, and thioredoxin control proteins were plated into the first column of 2 mL 96-well plates (Corning) at a concentration of 20 µM and serially diluted 1∶2 into freezing buffer (300 mM NaCl, 50 mM Na2PO4, pH 8, 20% glycerol v/v) eleven times using a Tecan Freedom EVO 100 workstation (Tecan, Männedorf, Switzerland). For the interaction assay, 5 µL of each of the twelve protein concentrations was added to the peptide-containing 384-well plates via the EP3 resulting in a protein dilution range of 0.002–10 µM and a final volume of 10 µL; peptide concentration was fixed at 10 nM. Peptide/protein samples were incubated for 20 minutes at room temperature in the dark and fluorescence polarization (FP) was measured in an Analyst GT multimode reader (Molecular Devices, Sunnyvale, CA) with excitation and emission wavelengths of 530 nm and 555 nm, respectively. Experimental values were output as millipolarization (mP) units and imported into MATLAB (The MathWorks, Inc., Natick, MA) in which equation (1) was used to determine dissociation constants (KDs) for each protein/peptide pairing by least squares nonlinear regression. [drawing 1] (1)
To scale up the number of interaction measurements while minimizing variation introduced by human intervention, we utilized an automated robotic platform (Figure 1A; see experimental procedures and Supplementary Methods) to transfer, incubate, and measure the fluorescence polarization (FP) induced from interactions of a titration series of SH2 domains with synthetic rhodamine-labeled ErbB phosphopeptides. Experimental values were output as millipolarization (mP) units and equation (1) was used to fit apparent midpoint dissociation constants (KDs) for each protein/peptide pair using non-linear regression (see experimental procedures).
For this interaction analysis, we synthesized and queried the interaction of phosphopeptides corresponding to 89 of 92 ErbB family intracellular tyrosines with 93 SH2 domains. Because nine peptide sequences share 100% identity between the receptors in the 4 to 7 amino acids C-terminal to the phosphorylated tyrosine, our peptide set consisted of 81 phosphopeptides corresponding to the 89 unique tyrosine containing sequences (Table S2). This peptide set represents a 50% increase over the three PM studies performed to date. We were therefore able to obtain a more systematic and unbiased view of the relative SH2 domain recruitment potential of each receptor. Although most ErbB receptor auto-phosphorylation sites have been detected frequently by mass spectrometry because of their high relative modification stoichiometry, non-auto-phosphorylation sites have been reported less frequently in the literature (Table S3). We reasoned that many physiologically relevant and uncharacterized ErbB tyrosines of low phosphorylation stoichiometry may exist and that our comprehensive interaction analysis might implicate their importance in mediating physiological interactions. We tested the majority of interactions (7099/8160 (87.0%); Figure S3) three or more times and reported standard error for all interactions that were detected in at least three FP runs (Table S4). […] Analysis of this polarization data may be useful for inferring how SH2 proteins bind to different peptide sequences. Larger proteins and proteins binding closer to the N-terminal rhodamine tag of a given peptide would be expected to induce higher maximal polarization (the calculated maximal polarization value at infinite protein concentration) than proteins binding farther from the tag. In addition to phosphopeptides, we queried a representative set of 27 non-phosphopeptides against the entire domain set. […]

Sequence of GRB7 SH2 domain (Q14451 431-527 limits assumed): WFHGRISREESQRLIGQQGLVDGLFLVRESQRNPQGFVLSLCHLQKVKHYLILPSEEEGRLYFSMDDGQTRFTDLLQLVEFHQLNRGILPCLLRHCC

CSCC[C@H](NC(=O)[C@H](Cc1ccc(O)cc1)NC(=O)[C@H](CCC(=O)O)NC(=O)[C@H](Cc1ccc(OP(=O)(O)O)cc1)NC(=O)[C@H](CCC(=O)O)NC(=O)[C@H](CCC(=O)O)NC(=O)[C@H](CC(=O)O)NC(=O)[C@@H](N)CCC(=O)O)C(=O)N[C@@H](CC(N)=O)C(=O)N[C@@H](CCCNC(=N)N)C(=O)N[C@@H](CCCNC(=N)N)C(=O)N[C@@H](CCCNC(=N)N)C(=O)N[C@@H](CC(=O)O)C(=O)O [ErbB3 pY1197] (HELM PEPTIDE1{E.D.E.E.[O=C([C@H](Cc1ccc(OP(=O)(O)O)cc1)N[*:1])[*:2]].E.Y.M.N.R.R.R.D}$$$$V2.0)
Kd (GRB7 SH2 domain; KD for GRB7, FP saturation assay): ≤ 0.1 µM

CC(C)C[C@H](NC(=O)[C@H](Cc1ccc(OP(=O)(O)O)cc1)NC(=O)[C@H](CC(C)C)NC(=O)[C@@H]1CCCN1C(=O)[C@H](CCC(=O)O)NC(=O)[C@@H](N)CC(N)=O)C(=O)N[C@@H](CC(N)=O)C(=O)N[C@H](C(=O)N[C@@H](Cc1ccccc1)C(=O)N[C@@H](C)C(=O)N[C@@H](CC(N)=O)C(=O)N[C@H](C(=O)N[C@@H](CC(=O)O)C(=O)O)[C@@H](C)O)[C@@H](C)O [ErbB4 1208 13-mer] (HELM PEPTIDE1{N.E.P.L.[O=C([C@H](Cc1ccc(OP(=O)(O)O)cc1)N[*:1])[*:2]].L.N.T.F.A.N.T.D}$$$$V2.0)
Kd (GRB7 SH2 domain; Mean KD, protein GRB7, high-confidence ErbB interactions, mean of replicate hits): 8.96 µM
Kd (PLCG1-C SH2 domain): 5.11 µM
Kd [1]: 11.3 µM

IGSQpYLLNWCVQd [ErbB1 pY813, N-terminally rhodamine-labeled 13-mer phosphopeptide]
Kd (SH2 and PTB domains; protein ABL2): 0.2 µM
Kd (SH2 and PTB domains; protein GRB10): 0.35 µM
Kd (SH2 and PTB domains; protein ITK): 0.31 µM
Kd (SH2 and PTB domains; protein NCK2): 0.2 µM
Kd (SH2 and PTB domains; protein PIK3R1-C): 1.85 µM
Kd (SH2 and PTB domains; protein PIK3R1-NC): 1.82 µM
Kd (SH2 and PTB domains; protein PIK3R3-NC): 1.87 µM
Kd (SH2 and PTB domains; protein RASA1-C): 1.95 µM
Kd (SH2 and PTB domains; protein RASA1-NC): 0.16 µM
Kd (SH2 and PTB domains; protein SH2D1B): 1.6 µM
Kd (SH2 and PTB domains; protein SH2D3C): 0.05 µM
Kd (SH2 and PTB domains; protein SHB): 0.28 µM
Kd (SH2 and PTB domains; protein SHE): 1.38 µM
Kd (SH2 and PTB domains; protein SHF): 1.06 µM
Kd (SH2 and PTB domains; protein SRC): 0.08 µM
Kd (SH2 and PTB domains; protein SYK-NC): 0.24 µM
Kd (SH2 and PTB domains; protein TENC1): 1.15 µM
Kd (SH2 and PTB domains; protein TNS3): 1.89 µM
Kd (SH2 and PTB domains; protein VAV1): 0.37 µM
Kd (SH2 and PTB domains; protein VAV2): 0.47 µM
Kd (SH2 and PTB domains; protein VAV3): 0.96 µM
Kd (SH2 and PTB domains; protein YES1): 0.022 µM
interaction with the SH2/PTB domain panel ([2]; KD <= 20 µM counted as interaction): reproducibly interacted at high affinity with many SH2 domains
SH2 domains found to interact ([2]; high-confidence interactions (Table S11, Figure S14)): interacted with tensin family SH2 domains
